Test results from paper PMC9207806 (ACS Chemical Biology, 2022).
Counter-ions that a name gives are not always drawn.

target: T1, VACV D9 decapping enzyme (Vaccinia virus, UniProt P04311); assay: biochemical; assay type: biochemical; settings: not given
T1 construct: His-tag (C); made in house
Protocol: Point fluorescence measurements were performed using the BioTek Synergy H1 microplate reader. Before each measurement, the reaction buffer was degassed. Experiments were performed in the Greiner 96-well, black, non-binding plates at 30 °C. Before the measurement, the plate was preincubated for 15 min at 30 °C with mixing (300 rpm). The point fluorescence was registered with 1 min interval and detection at 345 nm excitation wavelength and 378 nm emission wavelength.
Experiments to determine IC50 parameters were performed as point fluorescence measurements. Each well contained an appropriate buffer (10 mM MOPS·HCl, pH 7.0, 100 mM KOAc, containing 2 mM MgCl2, 0.3 mM MnCl2, and 2 mM DTT) with addition of 0.1% BSA, a fluorescent substrate (3 μM of probe 1b), an inhibitor (in half-logarithmic dilution, cinh ∈ 0, 100 μM), and an enzyme (5 nM of D9) to a final volume of 150 μL. To determine the IC50 values, a three parameter dose–response formula with standard hill slope from GraphPad Prism software was fitted [drawing 3] where V/V0 is the relative initial rate of the reaction, Imin and Imax are bottom and top plateaus, and Cinh is the concentration of the inhibitor.

Row | Molecule | IC50 [µM]
1 | Nc1nc2c(cnn2CCc2ccccc2)c2nc(-c3ccco3)nn12 [SCH 58261, reference compound] | 4.5 ± 0.8
2 | Nc1nc2ccc(Cl)cc2c2nc(-c3ccco3)nn12 [CGS-15943, reference compound] | 20.1 ± 5.2
3 | COc1cc(NS(C)(=O)=O)ccc1Nc1c2ccccc2nc2ccccc12 [amsacrine hydrochloride, reference compound] | 12.6 ± 1.7

same assay, conditions: in-house nucleotide library (Table S1, Figure 3); 3 μM probe 1b, 5 nM D9, 30 °C; means of 3 independent experiments ± SEM; read-out: IC50, nucleotide-derived compounds, FLINT HTS assay

Row | Molecule | IC50 [µM]
4 | Gpp-triazole-m7G | > 100
5 | m7Gppp m6AmpG | 17.4 ± 3
6 | C[n+]1cn([C@@H]2O[C@H](COP(O)(=S)OP(=O)(O)OP(=O)(O)O)[C@@H](O)[C@H]2O)c2nc(N)[nH]c(=O)c21 (stereo partly shown) [m7GTPαS] | 0.64 ± 0.06
7 | CO[C@@H]1[C@H](OP(=O)(O)OC[C@H]2O[C@@H](n3cnc4c(=O)[nH]c(N)nc43)[C@H](O)[C@@H]2O)[C@@H](COP(=O)(O)CP(=O)(O)OP(=O)([O-])OC[C@H]2O[C@@H](n3c[n+](C)c4c(O)nc(N)nc43)[C@H](O)[C@@H]2O)O[C@H]1n1cnc2c(N)ncnc21 [m7GppCH2pAmpG] | 27.4 ± 6.2
8 | m7GpppApG | 11.3 ± 2
9 | CO[C@H]1[C@@H](O)[C@H]([n+]2cn(C)c3c(=O)[nH]c(N)nc32)O[C@@H]1COP(=O)([O-])OP(=O)(O)OP(=O)(O)OC[C@H]1O[C@@H](n2cnc3c(=O)[nH]c(N)nc32)[C@H](O)[C@@H]1O [m27,3’OGpppG] | 10.6 ± 1.1
10 | Cn1c[n+]([C@@H]2O[C@H](COP(=O)(O)OP(=O)(O)OP(=O)(O)OC[C@H]3O[C@@H](n4cnc5c(N)ncnc54)[C@H](O)[C@@H]3O)[C@@H](O)[C@H]2O)c2nc(N)[nH]c(=O)c21 [m7GpppA] | 33 ± 5.9
11 | C[n+]1cn([C@@H]2O[C@H](COP(=O)(O)CP(=O)(O)OP(=O)(O)OC[C@H]3O[C@@H](n4cnc5c(=O)[nH]c(N)nc54)[C@H](O)[C@@H]3O)[C@@H](O)[C@H]2O)c2nc(N)[nH]c(=O)c21 [m7GpCH2ppG] | 16.8 ± 3.3
12 | m7GppCCppG | 24.4 ± 4
13 | Cn1c[n+]([C@@H]2O[C@H](COP(=O)(O)O)[C@@H](O)[C@H]2O)c2nc(N)[nH]c(=O)c21 [m7GMP] | > 100
14 | Gpp-SCH2-triazole-m7G | > 100
15 | Gppp-SCH2-triazole-m7G | > 100
16 | C[n+]1cn(C2OC(COP(=O)([O-])OP(=O)(O)OP(=O)(O)OCC3OC(n4cnc5c(=S)[nH]c(N)nc54)C(O)C3O)C(O)C2O)c2nc(N)[nH]c(=O)c21 (stereo not shown) [m7Gppp6SG] | 14.1 ± 1.7
17 | C[n+]1cn([C@@H]2O[C@H](COP(=O)(O)OP(=O)(O)OP(=O)(O)OC[C@H]3O[C@@H](n4c[n+](C)c5c(=O)[nH]c(N)nc54)[C@H](O)[C@@H]3O)[C@@H](O)[C@H]2O)c2nc(N)[nH]c(=O)c21 [m7Gpppm7G] | 14.3 ± 2.1
18 | CO[C@@H]1[C@H](OP(=O)(O)OC[C@H]2O[C@@H](n3cnc4c(=O)[nH]c(N)nc43)[C@H](O)[C@@H]2O)[C@@H](COP(=O)(O)OP(=O)(O)OP(=O)([O-])OC[C@H]2O[C@@H]([n+]3cn(C)c4c(=O)[nH]c(N)nc43)[C@H](O)[C@@H]2O)O[C@H]1n1cnc2c(=O)[nH]c(N)nc21 [m7GpppGmpG] | 12 ± 2.4
19 | C[n+]1cn([C@@H]2O[C@H](COP(O)(=S)OP(=O)(O)O)[C@@H](O)[C@H]2O)c2nc(N)[nH]c(=O)c21 (stereo partly shown) [m7GDPαS D2] | 7.6 ± 1.2
20 | m7Gpp-SCH2-triazole-G | 46 ± 6.8
21 | C[n+]1cn([C@@H]2O[C@H](COP(=O)([O-])OP(=O)(O)CP(=O)(O)O)[C@@H](O)[C@H]2O)c2nc(N)nc(O)c21 [m7GppCH2p] | 1.1 ± 0.1
22 | CO[C@@H]1[C@H](O)[C@@H](COP(=O)(O)OP(=O)(O)OP(=O)(O)OC[C@H]2O[C@@H]([n+]3cn(C)c4c(=O)[nH]c(N)nc43)[C@H](O)[C@@H]2O)O[C@H]1n1cnc2c(N)ncnc21 [m7GpppAm] | 19.8 ± 3.6

Row | Molecule | IC50 [µM]
23 | C[n+]1cn(C2OC(COP(=O)(O)OP(=O)([O-])C(Cl)(Cl)P(=O)(O)OP(=O)(O)OCC3OC(n4cnc5c(=O)[nH]c(N)nc54)C(O)C3O)C(O)C2O)c2nc(N)nc(O)c21 (stereo not shown) [m7GppCCl2ppG] | 41.4 ± 6.6
24 | m7GppCCl2ppm7G | 28.8 ± 4.1
25 | m7Gppp-SCH2-triazole-G | 24.9 ± 4.8
26 | Nc1ncnc2c1ncn2[C@@H]1O[C@H](COP(O)(=S)OP(=O)(O)OP(O)(=S)OC[C@H]2O[C@@H](n3cnc4c(N)ncnc43)[C@H](O)[C@@H]2O)[C@@H](O)[C@H]1O (stereo partly shown) [ApSppSA] | > 100
27 | m7GNpppG | 32.1 ± 5.9
28 | CO[C@@H]1[C@H](OP(=O)(O)OC[C@H]2O[C@@H](n3cnc4c(=O)[nH]c(N)nc43)[C@H](O)[C@@H]2O)[C@@H](COP(=O)(O)OP(=O)(O)OP(=O)([O-])OC[C@H]2O[C@@H]([n+]3cn(C)c4c(=O)[nH]c(N)nc43)[C@H](O)[C@@H]2O)O[C@H]1n1cnc2c(N)ncnc21 [m7GpppAmpG] | 20.4 ± 3.4
29 | m7Gmppp6SG | 7.2 ± 1.1
30 | m7Gpp-triazole-G | 17.5 ± 2.6
31 | CNc1ncnc2c1ncn2[C@@H]1O[C@H](COP(=O)(O)OP(=O)(O)OP(=O)(O)OC[C@H]2O[C@@H](n3c[n+](C)c4c(=O)[nH]c(N)nc43)[C@H](O)[C@@H]2O)[C@@H](OP(=O)(O)OC[C@H]2O[C@@H](n3cnc4c(=O)[nH]c(N)nc43)[C@H](O)[C@@H]2O)[C@H]1O [m7Gpppm6ApG] | 16.9 ± 3.2
32 | Nc1ncnc2c1ncn2[C@@H]1O[C@H](COP(=O)(O)OP(=O)(O)OP(=O)(O)OC[C@@H]2O[C@H](n3cnc4c(N)ncnc43)[C@@H](O)[C@H]2O)[C@@H](O)[C@H]1O [ApppA] | > 100
33 | C[n+]1cn(C2OC(COP(=O)(O)OP(=O)([O-])C(F)(F)P(=O)(O)OP(=O)(O)OCC3OC(n4cnc5c(=O)[nH]c(N)nc54)C(O)C3O)C(O)C2O)c2nc(N)nc(O)c21 (stereo not shown) [m7GppCF2ppG] | 16.7 ± 3.1
34 | CNc1ncnc2c1ncn2[C@@H]1O[C@H](COP(=O)(O)OP(=O)(O)OP(=O)(O)OC[C@H]2O[C@@H](n3c[n+](C)c4c(=O)[nH]c(N)nc43)[C@H](O)[C@@H]2O)[C@@H](O)[C@H]1O [m7Gppp(m6A)] | 31.5 ± 5.9
35 | C[n+]1cn(C2OC(COP(=O)([O-])OP(=O)(O)C(F)(F)P(=O)(O)OP(=O)([O-])OCC3OC(n4c[n+](C)c5c(=O)[nH]c(N)nc54)C(O)C3O)C(O)C2O)c2nc(N)[nH]c(=O)c21 (stereo not shown) [m7GppCF2ppm7G] | 14.7 ± 2.6
36 | C[n+]1cn(C2OC(COP(=O)([O-])OP(=O)(O)OP(=O)(O)OP(=O)(O)OP(=O)(O)OCC3OC(n4cnc5c(=O)[nH]c(N)nc54)C(O)C3O)C(O)C2O)c2nc(N)[nH]c(=O)c21 (stereo not shown) [m7GpppppG] | 13.9 ± 2.5
37 | C[n+]1cn([C@@H]2O[C@H](COP([O-])(=S)OP(=O)(O)O)[C@@H](O)[C@H]2O)c2nc(N)[nH]c(=O)c21 (stereo partly shown) [m7GDPαS D1] | 8.3 ± 1.7
38 | Gppp-triazole-m7G | 35 ± 5.3
39 | Nc1nc2c(ncn2[C@@H]2O[C@H](COP(=O)(O)OP(=O)(O)OP(=O)(O)OC[C@H]3O[C@@H](n4cnc5c(N)ncnc54)[C@H](O)[C@@H]3O)[C@@H](O)[C@H]2O)c(=O)[nH]1 [GpppA] | > 100
40 | Nc1nc2c(ncn2[C@@H]2O[C@H](COP(=O)(O)OP(=O)(O)OP(=O)(O)O)[C@@H](O)[C@H]2O)c(=O)[nH]1 [GTP, reference compound] | 15.4 ± 2.7

same assay, conditions: read-out: IC50, nucleotide-derived compounds, FLINT HTS assay; in-house nucleotide library (Table S1, Figure 3); 3 μM probe 1b, 5 nM D9, 30 °C; means of 3 independent experiments ± SEM

Row | Molecule | IC50 [µM]
41 | C[n+]1cn([C@@H]2O[C@H](COP(=O)(O)CP(=O)([O-])OP(=O)(O)O)[C@@H](O)[C@H]2O)c2nc(N)nc(O)c21 [m7GpCH2pp] | 0.58 ± 0.06
42 | CO[C@@H]1[C@H](OP(=O)(O)OC[C@H]2O[C@@H](n3cnc4c(=O)[nH]c(N)nc43)[C@H](O)[C@@H]2O)[C@@H](COP(=O)(O)OP(=O)([O-])OP(=O)(O)OC[C@H]2O[C@@H](n3c[n+](C)c4c(=O)[nH]c(N)nc43)[C@H](O)[C@@H]2OC)O[C@H]1n1cnc2c(=O)[nH]c(N)nc21 [m7GmpppGmpG] | 3.9 ± 0.5

same assay, conditions: read-out: IC50, nucleotide-derived compounds, FLINT HTS assay; in-house nucleotide library (Table S1, Figure 3); 3 μM probe 1b, 5 nM D9, 30 °C; means of 3 independent experiments ± SEM; listed as m^7GmpppGmpG

Row | Molecule | IC50 [µM]
43 | CO[C@@H]1[C@H](OP(=O)(O)OC[C@H]2O[C@@H](n3cnc4c(=O)[nH]c(N)nc43)[C@H](O)[C@@H]2O)[C@@H](COP(=O)(O)OP(=O)([O-])OP(=O)(O)OC[C@H]2O[C@@H](n3c[n+](C)c4c(=O)[nH]c(N)nc43)[C@H](O)[C@@H]2OC)O[C@H]1n1cnc2c(=O)[nH]c(N)nc21 [m7GmpppGmpG] | ~4
